The source of these data is article PMC9963121, “Development of Combretastatin A-4 Analogues as Potential Anticancer Agents with Improved Aqueous Solubility” (Molecules, 2023).

The nature of data set [1]: Configuration (cis/trans) stability. The note with it: Figure 1; cis/trans olefin configuration. The text has this: This vascular disrupting activity causes the tumor tissue vascular collapse, cutting down the oxygen and nutrient supply to tumor cells, leading to tumor cell death.
(compound 2, Figure 1). Still, the methyl group is difficult to modify chemically. […] Lipinski proposed the theory of the “Rule of 5” in 1997 [19], which is used to evaluate the pharmacokinetic characteristics of small molecule drugs.

The test system of data set [2] is HCT-116 colorectal cancer cell. Nature of the data set: MTT cell growth inhibition assay, HCT-116 colorectal cancer cells. Type of data set: cell-based, human. The note with it: for IC50: Homo sapiens, HCT-116, MTT, mean ± SD of three experiments. The text has this: (§1) Initially, we designed and synthesised seven compounds—9a and 12a1–12a6—and evaluated the anticancer activity and aqueous solubility. We evaluated the cytotoxic effects of these stilbene nitrile analogues against a panel of four human cancer cell lines (HCT-116, BEL-7402, MCF-7 and AGS) and two human non-cancerous normal cell lines (L-02 and MCF-10A), using CA-4 as a control. The compounds were screened for aqueous solubility in 0.01 M PBS using a high throughput UV method. […] It is possible that the size of the nitrogen heterocycle had little effect on the activity of these compounds. […] The aqueous solubility of all the compounds 12a1–12a6 was higher than that of 9a, particularly that of 12a1 and 12a2 containing piperazine rings. […] Of the six compounds with improved aqueous solubility, 12a1 had the best activity.
(§2) All human cell lines were used in this study. AGS gastric cancer cell, BEL-7402 liver cancer cell, HCT-116 colorectal cancer cell, L-02 normal liver cell, MCF-7 breast cancer cell, and MCF-10A normal breast cell were initially purchased from American Type Culture Collection (ATCC, Manassas, VA, USA). RPMI-1640 media, DMEM and FBS, were provided by Gibco Company. The cells were maintained in DMEM or RPMI-1640, supplemented with 10% FBS, 100 IU/mL penicillin and […] streptomycin, and at 37 °C in a humidified atmosphere containing 5% CO2.
(§3) The experiment was carried out according to the method of reference.

On the set-up of data set [3]: method as in PMID 12067983, PMID 12807934, PMID 14645433. The note with it: clinical data, intravenous CA-4P; cited from earlier work.
Data set [4] can be described thus: Aqueous solubility in 0.01 M PBS, high throughput UV method. Type of data set: physicochemical. The note with it: for Water solubility (in words): Figure 1; for solubility thermodynamic at 1.5 h: aqueous phosphate buffer, aqueous buffer, sodium phosphate buffer 0.01 M, pH 7.4, 22 ± 2 °C, mean ± SD.
Source text: as §1
The aqueous solubility was determined as a previously reported procedure. Put simply, a certain amount of powdered compound was placed in a 2 mL centrifuge tube and mixed with an appropriate volume of aqueous phosphate buffer (10 mM, pH 7.4) to make the whole system supersaturated. The mixtures were sonicated (KQ5200DE numerical control ultrasonic cleaner, Kunshan Ultrasonic Instrument Co., Ltd., SuZhou, China) for 20 min. After sonication, the mixture was allowed to equilibrate at RT (22 ± 2 °C) for 1.5 h with vortex shaking (1200 rpm). Then centrifuged at 3000 rpm for 15 min (1-14k, sigma, Darmstadt, Germany), the supernatant was filtered with a 0.22 µM filter membrane. And then, take 150 µL of filtrate and add it to 96-well UV plate with triplicate. Draw 150 μL of blank solution was added into plate as blank control. The 96-well UV plate prepared above was read on a Synergy HTX Multifunctional Microplate Reader (BioTek, Vermont, USA) at 294 nm. The absorbance of the sample was corrected according to the UV response of the sample and blank solution, and the corrected UV response values were used for solubility calculations by bringing into the standard curve of the compound. […]
1.5. Solubility Assessment
The aqueous solubility was determined as previously reported using the high throughput solubility screens procedure published by Bruno Bard et al [9. 10]. Put simply, a certain amount of powdered compound was placed in a 2 ml centrifuge tube and mixed with an appropriate volume of aqueous phosphate buffer (0.01 M, pH 7.4) to make the whole system supersaturated. The mixtures were sonicated (KQ5200DE numerical control ultrasonic cleaner, Kunshan Ultrasonic Instrument Co., Ltd., China) for 20 min. After sonication, the mixture was allowed to equilibrate at room temperature (22 ± 2°C) for 1.5 h with vortex shaking (1200 rpm). Then the centrifuge tube was put into the centrifuge (1-14k, sigma, Germany), centrifuged with 3000 rpm for 15 minutes, 0.22 µM filter membrane filtration supernatant, then take 150 µl filtrate and add it to 96-well UV plate, with three well for each compound. Draw 150 μL blank solution were added into 96 well-plate as blank control. The 96-well UV […]
plate prepared above was read on a SynergyHTX Multifunctional microplate reader (BioTek, USA) at 338 nm (compounds 12a-12d and 15-20) or 370 nm (compounds 9a-d). The absorbance of the sample was corrected according to the UV response of the sample and blank solution, and the corrected UV responses value were used for solubility calculations by bring into the standard curve of the compound. […]

In a further data set the test system is L-02 normal liver cell. The data set can be described thus: MTT cell growth inhibition assay, L-02 normal liver cells. Format: cell-based. The note with it: Homo sapiens, mean ± SD of three experiments.
Source text: as §1, §2, §3

Data set [5] deals with MCF-10A normal breast cell. The data set can be described thus: MTT cell growth inhibition assay, MCF-10A normal breast cells. The note with it: Homo sapiens, mean ± SD of three experiments, read-out: IC50 MCF-10A Normal Breast Epithelial Cells. Type of data set: cell-based.
Source text: as §1, §2, §3

Data set [6] in a line: Compound stability in rat plasma, HPLC. Type of data set: in vitro ADME. The note with it: 37 °C. How it is done:
Blood was collected from SD rats (200–250 g, male and female, Animal Experimental Center of Yanbian University) into heparin tubes, and supernatant plasma was collected after centrifugation.
A certain amount of 9a and 12a1 were accurately weighed and mixed with rat plasma. After incubation at 37 ℃ for 0, 6, 12, 24 and 36 h, the plasma samples were treated with methanol and analyzed by HPLC to determine their stability in plasma.
A HITACHI Primaide HPLC liquid chromatography system was equipped and used for all analyses. Chromatographic separation was performed on a Welch Ultimate XB-C18 column (3.9 mm × 150 mm, 5 μm; Welch, China). The analytes were eluted using a gradient method with a flow rate of 1 mL/min. Mobile phase A was Ultra pure water, and mobile phase B was methanol according to the following gradient: (1) The gradient elution conditions of 9a: 0 to 8 min, 55% to 67% B; 8.1 to 15 min, 67% to 90% B; 15.1 to 25 min, 55% B. (2) The gradient elution conditions of 12a1: 0 to 9 min, 55% to 65% B; 9.1 to 12 min, 65% to 75% B; 12.1 to 15 min, 75% to 85% B; 15.1 to 20 min, 90% B; 20.1 to 30 min, 55% B. The injection volume was 3 μL. The column temperature was set at 40 °C. […]
1.6. Plasma stability assessment
Prepare plasma:blood was collected from SD rats (200-250g, male and female, Animal Experimental Center of Yanbian University) into heparin tubes, and supernatant plasma was collected after centrifugation.
A certain amount of 9a and 12a1 were accurately weighed and mixed with rat plasma.
After incubation at 37℃ for 0 h, 6 h, 12 h, 24 h and 36 h, the plasma samples were treated with methanol and analyzed by HPLC to determine their stability in plasma.
Analytical instrument and conditions:
A HITACHI Primaide HPLC liquid chromatography system equipped was used for all analyses. Chromatographic separation was performed on a Welch Ultimate XB-C18 column (3.9 mm × 150 mm, 5 μm; Welch, China). The analytes were eluted using a gradient method with a flow rate of 1 mL/min. Mobile phase A was Ultra pure water, and mobile phase B was methanol according to the following gradient: (1). The gradient elution conditions of 9a: 0 to 8 minutes, 55% to 67% B; 8.1 to 15 minutes, 67% to 90% B; 15.1 to 25 minutes, 55% B. (2). The gradient elution conditions of […]

In another data set the test system is MCF-7 breast cancer cell. The data set can be described thus: MTT cell growth inhibition assay, MCF-7 breast cancer cells. Type of data set: cell-based. The note with it: Homo sapiens, MCF7, mean ± SD of three experiments.
Source text: as §1, §2, §3

In another data set the test system is AGS gastric cancer cell. Nature of the data set: MTT cell growth inhibition assay, AGS gastric cancer cells. The note with it: Homo sapiens, mean ± SD of three experiments. Type of data set: cell-based.
Source text: as §1, §2, §3

Data set [7] relates to BEL-7402 liver cancer cell. Nature of the data set: MTT cell growth inhibition assay, BEL-7402 liver cancer cells. The note with it: Homo sapiens, mean ± SD of three experiments, read-out: IC50 BEL-7402 Hepatoma Cells. Format: cell-based.
Source text: as §1, §2, §3

Details of data set [8]: method as in earlier work. The note with it: cited from earlier work.

With `COc1ccc(/C=C\c2cc(OC)c(OC)c(OC)c2)cc1OP(=O)([O-])[O-].[Na+].[Na+]` [CA-4P, reference compound], the “Configuration stability (in words)” value in [1] is on record as “Configuration instability”. In addition, the IC50 – broadly, the concentration that inhibits the measured activity by half – in data set [2] amounted to 0.59 ± 0.22 µM. For the same molecule, the half-life result in data set [3] was “about 30 min”. In addition, the “Water solubility (in words)” value in data set [4] is “Good water solubility”.
As for `COc1cc(/C(C#N)=C/c2ccc(N)cc2)cc(OC)c1OC` [9a, (Z)-3-(4-aminophenyl)-2-(3,4,5-trimethoxyphenyl)acrylonitrile], the IC50 in the data set on L-02 normal liver cell was 20.7 ± 3.39 µM; in [5], > 100 µM; in the data set on MCF-7 breast cancer cell, 4.82 ± 1.57 µM; with AGS gastric cancer cell, 0.12 ± 0.01 µM; in [7], 0.14 ± 0.01 µM; in data set [2], 0.02 ± 0.01 µM. The “Decrease of HPLC peak area in rat plasma” value in data set [6] (within 36 h, UV 294 nm) is given as “approximately 33%”. In addition, the “Plasma stability (in words)” value in data set [6] (rat plasma, 24 h) is recorded as “retained plasma stability over 24 h”. Further, the “Selectivity for HCT-116 cancer cells over L-02 normal cells” value in [2] (ratio of IC50 values L-02 / HCT-116) amounted to 1000 times. For the same molecule, in data set [2] (ratio to CA-4), the “Activity against HCT-116 relative to CA-4” value was “eight times higher”. The “Water solubility (in words)” value in [4] is “Poor water solubility”. For the same molecule, the solubility (thermodynamic) (commonly solubility found after equilibrating the solid with the medium) at 1.5 h in data set [4] was 10.8 ± 0.7 µg/mL. Moreover, the “Aqueous solubility relative to CA-4” value in data set [4] (ratio to CA-4) is on record as “five times lower”. Also, the “Improvement in aqueous solubility over compound 2” value in data set [4] (ratio to compound 2) was “two-fold”.
In the case of `COc1ccc(/C=C\c2cc(OC)c(OC)c(OC)c2)cc1O` [CA-4, Combretastatin A-4], the IC50 with L-02 normal liver cell worked out at 1.1 ± 0.03 µM; with MCF-7 breast cancer cell, 0.22 ± 0.09 µM; in the data set with AGS gastric cancer cell, 3.42 ± 0.03 µM; in [2], 0.16 µM. Further, in [4], the “Water solubility (in words)” value is “Poor water solubility”. For the same molecule, the solubility (thermodynamic) at 1.5 h in data set [4] was 57.7 µg/mL. In addition, in [8], the “Rat Plasma Protein Binding Rate” value was 72.3 ± 6.9%.
On to `COc1cc(/C(C#N)=C/c2ccc(N)cc2C)cc(OC)c1OC` [9b], for which the melting point (commonly the temperature of the solid-liquid transition) was 224 to 230 °C. Moreover, inhibition in the data set with L-02 normal liver cell was half-maximal at 6.01 ± 1.35 µM (IC50). Moreover, the IC50 in data set [5] is > 100 µM. Moreover, in the data set with MCF-7 breast cancer cell, the IC50 is > 100 µM. Besides, the IC50 with AGS gastric cancer cell was 0.8 ± 0.14 µM. Besides, the IC50 in [7] came out at 0.16 ± 0.02 µM. Further, the IC50 in data set [2] stood at 0.16 ± 0.02 µM. Moreover, in data set [4], the thermodynamic solubility at 1.5 h stood at 1.2 ± 0.3 µg/mL. Further, the “Decrease of aqueous solubility compared with 9a” value in [4] (ratio to 9a) is reported as “nine times”.
With `COc1cc(/C(C#N)=C/c2ccc(NC(=O)CN3CCNC[C@@H]3C)cc2)cc(OC)c1OC.Cl` [compound 19], the melting point lay in the range of 200 to 202 °C. Moreover, in the data set with L-02 normal liver cell, the IC50 stood at 23 ± 2.05 µM. For the same molecule, the IC50 in data set [5] came to 16.3 ± 2.14 µM. This molecule also had an IC50 with MCF-7 breast cancer cell of 15.4 ± 1.88 µM. In the data set on AGS gastric cancer cell, the IC50 turned out to be 5.58 ± 2.33 µM. Moreover, in data set [7], the IC50 was 4.72 ± 0.99 µM. In data set [2], this molecule yielded an IC50 of 8.18 ± 0.67 µM. Besides, in [4], the solubility (thermodynamic) at 1.5 h turned out to be 79.5 ± 11.1 µg/mL.
Regarding `COc1cc(/C(C#N)=C/c2ccc(NC(=O)CN3CCNC[C@H]3C)cc2)cc(OC)c1OC.Cl` [compound 20], the melting point lay within 200 to 202 °C. Also, the half-maximal inhibitory concentration (IC50) in the data set with L-02 normal liver cell was found to be 25 ± 2.94 µM. In addition, the IC50 in data set [5] was 17.8 ± 2.78 µM. In the data set with MCF-7 breast cancer cell, the IC50 is 17.3 ± 2.31 µM. For the same molecule, the IC50 in the data set with AGS gastric cancer cell was 15.2 ± 0.76 µM. In data set [7], the IC50 worked out at 6.53 ± 1.67 µM. It took 10.5 ± 2.32 µM to reach half-maximal inhibition in [2] (IC50). Moreover, the solubility (thermodynamic) at 1.5 h in data set [4] was 111 ± 12.3 µg/mL.
